Measured values taken from PubChem BioAssay (NCI).
Several values for one entry are separate records, joined by “and”; a condition that tells them apart may be missing. Identical values can stand only once.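 Five compound concentrations were applied to cells in 96-well plates for 48 hours; endpoints were derived by simple linear interpolation of the resulting dose-response curve. GI50 marks 50% less growth. Definition used: TGI = concentration required for complete inhibition of growth.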

How the values were obtained:
Assay in all cases: NCI-60 cell line screen, 48 h
COLO 205 colon = test system: COLO 205 colon
DU-145 prostate = test system: DU-145 prostate
HOP-62 NSCLC = test system: HOP-62 NSCLC
HT29 colon = test system: HT29 colon
IGROV1 ovarian = test system: IGROV1 ovarian
MALME-3M melanoma = test system: MALME-3M melanoma
M14 melanoma = test system: M14 melanoma
PC-3 prostate = test system: PC-3 prostate
CAKI-1 renal = test system: CAKI-1 renal
UO-31 renal = test system: UO-31 renal

Row | SMILES | GI50 (COLO 205 colon) | TGI (COLO 205 colon) | GI50 (DU-145 prostate) | TGI (DU-145 prostate) | GI50 (HOP-62 NSCLC) | TGI (HOP-62 NSCLC) | GI50 (HT29 colon) | TGI (HT29 colon) | GI50 (IGROV1 ovarian) | TGI (IGROV1 ovarian) | GI50 (MALME-3M melanoma) | TGI (MALME-3M melanoma) | GI50 (M14 melanoma) | TGI (M14 melanoma) | GI50 (PC-3 prostate) | TGI (PC-3 prostate) | GI50 (CAKI-1 renal) | TGI (CAKI-1 renal) | GI50 (UO-31 renal) | TGI (UO-31 renal)
1 | CCCCCCc1nc2nc(Cl)c(Cl)nc2[nH]1 | 8.04 µM | > 100 µM | 83.2 µM | > 100 µM | > 100 µM | > 100 µM | > 100 µM | > 100 µM | 18.9 µM | > 100 µM | 4.63 µM | > 100 µM | > 100 µM | > 100 µM | 4.68 µM | > 100 µM | 6.37 µM | > 100 µM | 4.88 µM | > 100 µM
2 | S=c1nc(Cl)cc2[nH]c(Cl)cn12 | – | 8.08 µM | – | > 100 µM | – | > 100 µM | – | 75.3 µM | – | 30.2 µM | – | > 100 µM | – | > 100 µM | – | > 100 µM | – | > 100 µM | – | > 100 µM
3 | COc1cc(O)c2c(c1)C(=O)c1cc3c(c(O)c1C2=O)C(OC1OC(C)C(O)C(O)C1OC)C(OC)C(C)(O)C3=O (configuration not stated) | 1.31 µM | 5.2 µM and 3.25 µM | 3.11 µM | 11.5 µM | 2.92 µM | 26.1 µM and 9.56 µM | 2.44 µM | 11.8 µM and 8.61 µM | – | 7.16 µM | – | 2.54 µM and 2.65 µM | 1.69 µM | 3.65 µM | 2.57 µM | 12.3 µM | 1.99 µM and 0.671 µM | 6.82 µM and 4.95 µM | 1.87 µM | 12.2 µM and 7.13 µM
4 | O=c1c2ccccc2c2ccccc2c(=O)n1Cc1ccc2c(c1)OCO2 | – | > 100 µM | – | > 100 µM | – | > 100 µM | – | > 100 µM | – | > 100 µM | – | > 100 µM | – | > 100 µM | – | > 100 µM | – | > 100 µM | – | > 100 µM
5 | COC(=O)[C@H](Cc1ccc(O)cc1)NC(=O)[C@@H](OC)[C@@H]1Cc2cc3cc(OC4CC(OC5CC(O)C(O)C(C)O5)C(O)C(C)O4)c(C)c(O)c3c(O)c2C(=O)[C@H]1OC1CC(OC2CC(OC3CC(C)(O)C(O)C(C)O3)C(O)C(C)O2)C(O)C(C)O1 (some centres not stated) | 0.0932 µM | 1.19 µM | 0.164 µM | > 25 µM | 0.106 µM | > 25 µM | 0.102 µM | > 25 µM | 0.0357 µM | > 25 µM | 0.0397 µM | 0.492 µM | 0.204 µM | 6.43 µM | 0.106 µM | > 25 µM | 0.45 µM | > 25 µM | 0.914 µM | > 25 µM
6 | O=C(NCc1ccncc1)C12CC3CC(C1)CC(c1ccc(Cl)cc1)(C3)C2 | 12.7 µM | 27.1 µM | 14.8 µM | 28.6 µM | 14 µM | 27.2 µM | 11.9 µM | 25.4 µM | 13.3 µM | 29.3 µM | 13.3 µM | 27.4 µM | 12.7 µM | 26.9 µM | 8.86 µM | 23.1 µM | 11.9 µM | 24.9 µM | 10.2 µM | 22 µM
7 | CCCCCCCCCCCCOC1C(C(CC(=O)N2CCN(c3cccc(C(F)(F)F)c3)CC2)NS(=O)(=O)c2cc(Cl)cc(Cl)c2)OC2OC(C)(C)OC21 (configuration not stated) | > 100 µM | > 100 µM | > 100 µM | > 100 µM | > 100 µM | > 100 µM | > 100 µM | > 100 µM | > 100 µM | > 100 µM | > 100 µM | > 100 µM | > 100 µM | > 100 µM | > 100 µM | > 100 µM | > 100 µM | > 100 µM | > 100 µM | > 100 µM
8 | COc1cccc2c1c(C1=C(c3cn(C)c4ccccc34)C(=O)NC1=O)cn2C | > 25 µM | > 25 µM | > 25 µM | > 25 µM | > 25 µM | > 25 µM | > 25 µM | > 25 µM | > 25 µM | > 25 µM | > 25 µM | > 25 µM | > 25 µM | > 25 µM | > 25 µM | > 25 µM | > 25 µM | > 25 µM | > 25 µM | > 25 µM
9 | C=CN(C)S(C)(=O)=O | > 100 µM | > 100 µM | > 100 µM | > 100 µM | > 100 µM | > 100 µM | > 100 µM | > 100 µM | > 100 µM | > 100 µM | > 100 µM | > 100 µM | > 100 µM | > 100 µM | > 100 µM | > 100 µM | > 100 µM | > 100 µM | > 100 µM | > 100 µM
10 | CN(C)CCOC(c1ccccc1)c1ccccc1 | 14 µM | 28.3 µM and > 100 µM | 40.3 µM | 55.8 µM and > 100 µM | 36 µM | 50.9 µM and > 100 µM | 23.8 µM | 45.5 µM and > 100 µM | 29.3 µM | 46.3 µM and > 100 µM | 25.2 µM | 46 µM and > 100 µM | 15.3 µM | 23.9 µM and > 100 µM | – | 44.4 µM and > 100 µM | 38.2 µM | 52.6 µM and > 100 µM | 32.6 µM | 47.4 µM and > 100 µM
11 | N#CS.N=C=S.N=C=S.[Cu+2].[NH2-].[NH2-].[NH2-].[NH2-].c1ccc2ncccc2c1 | > 100 µM | > 100 µM | 17.3 µM | 36.1 µM | 36.9 µM | > 100 µM | 60.7 µM | > 100 µM | 55.7 µM | > 100 µM | > 100 µM | > 100 µM | > 100 µM | > 100 µM | > 100 µM | > 100 µM | > 100 µM | > 100 µM | 60.7 µM | > 100 µM
12 | CCS(=O)(=O)Nc1cccc(Nc2c3cccc(C)c3nc3c(C)cccc23)c1OC | 2.56 µM | > 100 µM | 0.545 µM | 14.1 µM | 0.555 µM | > 29.3 µM | 1.93 µM | 10.5 µM | 1.8 µM | > 70.2 µM | 0.901 µM | > 47.4 µM | 0.435 µM | > 100 µM | 1.67 µM | 19.2 µM | 0.347 µM | 15.8 µM | 0.393 µM | 26 µM
